# From patent US20130303575A1, “ADMINISTRATION OF AN INHIBITOR OF HDAC” (priority 2007, published 2013)
# Experiments:
# [1] = Plasma pharmacokinetics of oral SNDX-275 in adults with advanced acute leukemias (Example 3); type: in vivo, human; settings: for AUC / Cmax / half-life / Tmax: human, plasma, oral; for AUC: read-out: AUC (mean and SD); for Cmax: read-out: Cmax (mean and SD)
# Protocol: Separated plasma was immediately frozen on dry ice and then stored at -70° C. until analysis. […] The pharmacokinetic parameters of interest included peak plasma concentration (Cmax), time to peak concentration (Tmax), area under the plasma concentration versus time curve extrapolated to infinity (AUC), apparent oral clearance (CL/F), and the terminal half-life (T1/2, z). […] The influence of the dose level on CL/F was evaluated using the Kruskal-Wallis' one-way analysis of ranks test, followed by the Dunn's multiple comparison test for identifying statistically significant group differences. These calculations were preformed with the software package NCSS version 2001 (Number Cruncher Statistical Systems, […], Utah).
# [2] = Plasma pharmacokinetics of oral SNDX-275 in patients with advanced and refractory solid tumors or lymphoma (Example 2); type: in vivo; settings: human; for Cmax / AUC / Tmax / half-life: plasma, oral
# Protocol: The initial dosing schedule was daily oral administration for 28 days and 14-day recovery period, constituting a 42-day cycle. […] Samples were immediately centrifuged at 3000 g for 10 minutes at 4° C. and then plasma was divided into two aliquots of at least 1 mL and frozen at −70° C. until the time of analysis. Plasma samples were assayed by a specific and sensitive high-performance liquid chromatographic assay with mass-spectrometric detection. […] The pharmacokinetic parameters of interest included peak plasma concentration (Cmax), time to peak concentration (Tmax), area under the plasma concentration versus time curve extrapolated to infinity (AUC), apparent oral clearance (CL/F), and the terminal half-life (T1/2, z). The peak plasma concentrations (Cmax) and the time to peak plasma concentrations (Tmax) were the observed values. The area under the plasma concentration versus time curve (AUC) was calculated using the linear trapezoidal method from time zero to the time of the final quantifiable concentration (AUCtf). The AUC was then extrapolated to infinity (AUCinf) by dividing the last measured concentration by the rate constant of the terminal phase (k), which was determined by linear-regression analysis of the final three or four time points of the ling-linear concentration time plot. […] Deviations of β from 1 correspond to deviations from ideal dose proportionality. […] All PK data are presented as mean±SD, except where otherwise indicated. […] One-way analysis of variance was performed to compare mean values using a two-sided Dunnett's test. Statistical calculations were performed using the Number Cruncher Statistical System 2001 series (J. L. Hintze, Kaysville, Utah). The cut-off for statistical significance was considered at P<0.05.
# [3] = 4 mg/m2, 4 mg/m^2, first dose, with food, 7 patients
compound,measurement,setting,value
"Nc1ccccc1NC(=O)c1ccc(CNC(=O)OCc2cccnc2)cc1 [SNDX-275, N-(2-aminophenyl) 4-[N-(pyrid-3-yl)methyloxycarbonylaminomethyl]benzamide]",AUC with increasing doses,[1]; 4 to 10 mg/m^2,reached a plateau
same,"T1/2 (mean and SD), terminal half-life","[1]; All doses, n = 27",36 h
same,AUC,[1]; [3],0.208 ± 0.0861 µg·h/mL
same,Cmax,[1]; [3],0.00474 ± 0.00341 µg/mL
same,half-life,"[1]; 4 mg/m2, 4 mg/m^2, first dose, with food, 7 patients, read-out: T1/2 (mean and SD) (converted)",36.6 ± 18.6 h
same,Tmax,"[1]; 4 mg/m2, 4 mg/m^2, first dose, with food, 7 patients, read-out: Tmax (median)",12 h
same,Cmax,"[1]; 6 mg/m2, 6 mg/m^2, first dose, with food, 7 patients",0.00487 ± 0.00176 µg/mL
same,Tmax,"[1]; 6 mg/m2, 6 mg/m^2, first dose, with food, 7 patients, read-out: Tmax (median)",12 h
same,AUC,"[1]; 6 mg/m2, 6 mg/m^2, first dose, with food, n = 5",0.351 µg·h/mL
same,half-life,"[1]; 6 mg/m2, 6 mg/m^2, first dose, with food, n = 5, read-out: T1/2 (mean and SD) (converted)",43.8 ± 16.4 h
same,Cmax,"[1]; 8 mg/m2, 8 mg/m^2, first dose, with food, 15 patients",0.0531 ± 0.0924 µg/mL
same,Tmax,"[1]; 8 mg/m2, 8 mg/m^2, first dose, with food, 15 patients, read-out: Tmax (median)",1 h
same,AUC,"[1]; 8 mg/m2, 8 mg/m^2, first dose, with food, n = 10",0.328 µg·h/mL
same,half-life,"[1]; 8 mg/m2, 8 mg/m^2, first dose, with food, n = 10, read-out: T1/2 (mean and SD) (converted)",33.4 ± 12.7 h
same,Cmax,"[1]; 10 mg/m2, 10 mg/m^2, first dose, with food, 6 patients",0.0532 ± 0.058 µg/mL
same,Tmax,"[1]; 10 mg/m2, 10 mg/m^2, first dose, with food, 6 patients, read-out: Tmax (median)",1 h
same,AUC,"[1]; 10 mg/m2, 10 mg/m^2, first dose, with food, n = 5",0.312 µg·h/mL
same,half-life,"[1]; 10 mg/m2, 10 mg/m^2, first dose, with food, n = 5, read-out: T1/2 (mean and SD) (converted)",30.4 ± 13.9 h
same,Tmax,"[1]; All doses, 35 patients, read-out: Tmax (median)",~2 h
same,half-life,"[1]; All doses, n = 27, read-out: T1/2 (mean and SD), terminal half-life (converted)",35.6 ± 15 h
same,Tmax,"[1]; all dose levels, read-out: range of Tmax values",0.5 to 36 h
same,"interpatient variability in clearance, comparison for body-surface area correction",[2]; in vivo,39.5%
same,Cmax,"[2]; 2 mg/m2, 2 mg/m^2, q14-day, first dose, fed, 3 patients",0.00172 µg/mL
same,AUC,"[2]; 2 mg/m2, 2 mg/m^2, q14-day, first dose, fed, 3 patients, read-out: AUC Mean",0.196 µg·h/mL
same,Tmax,"[2]; 2 mg/m2, 2 mg/m^2, q14-day, first dose, fed, 3 patients, read-out: Tmax Median",6 h
same,half-life,"[2]; 2 mg/m2, 2 mg/m^2, q14-day, first dose, fed, 3 patients, read-out: t1/2 Mean (converted)",80.2 h
same,Cmax,"[2]; 4 mg/m2, 4 mg/m^2, q14-day, first dose, fed, 3 patients",0.00484 µg/mL
same,AUC,"[2]; 4 mg/m2, 4 mg/m^2, q14-day, first dose, fed, 3 patients, read-out: AUC Mean",0.392 µg·h/mL
same,Tmax,"[2]; 4 mg/m2, 4 mg/m^2, q14-day, first dose, fed, 3 patients, read-out: Tmax Median",6 h
same,half-life,"[2]; 4 mg/m2, 4 mg/m^2, q14-day, first dose, fed, 3 patients, read-out: t1/2 Mean (converted)",50.5 h
same,Cmax,"[2]; 6 mg/m2, 6 mg/m^2, q14-day, first dose, fed, 6 patients",0.00959 µg/mL
same,AUC,"[2]; 6 mg/m2, 6 mg/m^2, q14-day, first dose, fed, 6 patients, read-out: AUC Mean",0.493 µg·h/mL
same,Tmax,"[2]; 6 mg/m2, 6 mg/m^2, q14-day, first dose, fed, 6 patients, read-out: Tmax Median",2 h
same,half-life,"[2]; 6 mg/m2, 6 mg/m^2, q14-day, first dose, fed, 6 patients, read-out: t1/2 Mean (converted)",52.8 h
same,Cmax,"[2]; 8 mg/m2, 8 mg/m^2, q14-day, first dose, fed, 5 patients",0.0155 µg/mL
same,AUC,"[2]; 8 mg/m2, 8 mg/m^2, q14-day, first dose, fed, 5 patients, read-out: AUC Mean",0.358 µg·h/mL
same,Tmax,"[2]; 8 mg/m2, 8 mg/m^2, q14-day, first dose, fed, 5 patients, read-out: Tmax Median",2 h
same,half-life,"[2]; 8 mg/m2, 8 mg/m^2, q14-day, first dose, fed, 5 patients, read-out: t1/2 Mean (converted)",39.7 h
same,Cmax,"[2]; 10 mg/m2, 10 mg/m^2, q14-day, first dose, fed, 6 patients",0.0451 µg/mL
same,AUC,"[2]; 10 mg/m2, 10 mg/m^2, q14-day, first dose, fed, 6 patients, read-out: AUC Mean",0.529 µg·h/mL
same,Tmax,"[2]; 10 mg/m2, 10 mg/m^2, q14-day, first dose, fed, 6 patients, read-out: Tmax Median",1.5 h
same,half-life,"[2]; 10 mg/m2, 10 mg/m^2, q14-day, first dose, fed, 6 patients, read-out: t1/2 Mean (converted)",51.6 h
same,Cmax,"[2]; 12 mg/m2, 12 mg/m^2, q14-day, first dose, fed, 4 patients",0.132 µg/mL
same,AUC,"[2]; 12 mg/m2, 12 mg/m^2, q14-day, first dose, fed, 4 patients, read-out: AUC Mean",0.68 µg·h/mL
same,Tmax,"[2]; 12 mg/m2, 12 mg/m^2, q14-day, first dose, fed, 4 patients, read-out: Tmax Median",0.5 h
same,half-life,"[2]; 12 mg/m2, 12 mg/m^2, q14-day, first dose, fed, 4 patients, read-out: t1/2 Mean (converted)",45 h
same,Tmax,"[2]; all doses 2 to 12 mg/m^2, q14-day, read-out: Tmax Grand median",1.75 h
same,half-life,"[2]; all doses 2 to 12 mg/m^2, q14-day, read-out: t1/2 Grand mean (apparent terminal half-life) (converted)",51.7 ± 21.6 h
same,half-life,"[2]; bi-exponential decline, read-out: T1/2 in plasma (converted)",~50 h
same,half-life,"[2]; half-life of SNDX-275 in humans, preliminary PK analysis",39 to 80 h
same,Tmax,"[2]; in some patients, read-out: earliest Tmax observed (converted)",0.5 h
same,AUC,"[2]; n=4, FIG. 6, read-out: mean AUC in patients experiencing DLTs",0.517 ± 0.276 µg·h/mL
same,AUC,"[2]; n=23, FIG. 6, read-out: mean AUC in patients without DLT",0.28 ± 0.121 µg·h/mL
same,Tmax,"[2]; q14-day schedule, read-out: median Tmax",~2 h
